Results taken from ChEMBL document CHEMBL1130291, “Synthesis of trimethylated phosphonium and arsonium analogues of the osmoprotectant glycine betaine; contrasted biological activities in two bacterial species” (Bioorg Med Chem Lett, 1997).
Calls of active or inactive are those of the source. No cut-off for these calls is given here.

Assays:
Type in all cases: functional, organism-based
Sinorhizobium meliloti [1] = experiment: Osmoprotective activity of compound in Rhizobium meliloti 102F34 by restoring its growth rate was evaluated; Highly osmoprotective
Escherichia coli [2] = experiment: Inhibitory activity against growth of Escherichia coli MC4100 in presence 0.8M NaCl; Strong inhibition
Escherichia coli [3] = experiment: Inhibitory activity against growth of Escherichia coli MC4100 without NaCl; No effect
Sinorhizobium meliloti [4] = experiment: Osmoprotective activity of compound in Rhizobium meliloti 102F34 by restoring its growth rate was evaluated; Highly toxic
Sinorhizobium meliloti [5] = experiment: Inhibition of the growth of Rhizobium meliloti was observed at 1 mM by inoculation of 0.5 M NaCl; No growth was observed

Structure (SMILES)	Activity (Sinorhizobium meliloti [1])	Activity (Escherichia coli [2])	Activity (Escherichia coli [3])	Activity (Sinorhizobium meliloti [4])	Activity (Sinorhizobium meliloti [5])
C[N+](C)(C)CC(=O)O	Highly osmoprotective	Highly osmoprotective	inactive	–	–
C[P+](C)(C)CC(=O)[O-]	–	No growth	inactive	Toxic	No growth
C[As+](C)(C)CC(=O)[O-]	–	No growth	inactive	Toxic	No growth
